# Entries after “also recorded” stand apart in the source; their conditions may differ. Structures can show the parent of a compound that is named as a salt. Where two headings read alike, the source gives them in different places.
# What was measured:
# [1] = Elevated temperature storage stability in dry form (potency loss or gain by HPLC); format: physicochemical; conditions: for degraded at 24 h: 1 day
# Method: Elevated temperature stabilities were determined by storing the preparations in dry containers at temperatures and for time periods as denoted below and potency losses or gains were determined by HPLC. A % potency gain is indicated by a plus sign in front of a figure. A less than 10% potency loss over a 2 to 4 week period at 45-56 deg. C. is usually indicative of less than 10% potency loss over a 2-3 year period at room temperature.
# [2] = dry powder, 45 deg. C. and above, even one week; 10080 min; cited from earlier work
# various organisms = conditions: Aburaki et al. U.S. Pat. No. 4,406,899; listed as zwitterion form; cited from earlier work
# Solubility in water = format: physicochemical; conditions: for solubility in water (in words): for typical injectable compositions
# [3] = Weight loss on drying of the hydrate; format: physicochemical; conditions: 57° C., 0.001 mm Hg over P2 O5, 5 days; or 45° C., 10 mm Hg, 2 days
# Text: The foregoing procedures of Examples XI and XII routinely produce monohydrate having a water content in the range of 2.46% to 3.70% with an average value of 3.31%. The value calculated from the stoichiometric formula is 3.15%.
# [4] = Formation of insoluble particles on storage; format: physicochemical; conditions: storage at elevated temperatures
# Text: The dihydrochloride dihydrate described in Example XIII can be easily dried to give the same dihydrochloride monohydrate described in Examples XI and XII. […] Accordingly, the monohydrate carrying up to about 1% by weight of adventitious water is the preferred form (total water content ca. 2.5-4.1%).
# [5] = dry solid, 45 Deg. C., 2 weeks, dry container, + = potency gain, read-out: PERCENT LOSS (potency)
# [6] = dry solid, 100 Deg. C., dry container, + = potency gain, read-out: PERCENT LOSS (potency)
# [7] = 45 Deg. C., 1 week, dry container, + = potency gain, 10080 min
# [8] = 45 Deg. C., 4 weeks, dry container, + = potency gain, 40320 min
# [9] = 56 Deg. C., 1 week, dry container, + = potency gain, 10080 min
# [10] = 45 Deg. C., 2 weeks, dry container, + = potency gain, 20160 min
# [11] = 45 Deg. C., 6 weeks, dry container, + = potency gain, 60480 min
# [12] = 56 Deg. C., 2 weeks, dry container, + = potency gain, 20160 min
# [13] = listed as di-nitric acid addition salt
# [14] = listed as sulfuric acid addition salt, sulfate salt
smiles,measurement,setting,value
"CO/N=C(\C(=O)NC1C(=O)N2C(C(=O)[O-])=C(C[N+]3(C)CCCC3)CS[C@H]12)c1csc(N)n1 (stereo partly drawn) [Zwitterion, 7-[α-(2-aminothiazol-4-yl)-α-(Z)-methoxyiminoacetamido]-3-[(1-methyl-1-pyrrolidinio)methyl]-3-cephem-4-carboxylate, reference compound]",degraded at 168 h,"[1]; dry solid, 45 Deg. C., 1 week, dry container, + = potency gain, read-out: PERCENT LOSS (potency)",37%
same,degraded at 336 h,[1]; [5],51%
same,degraded at 672 h,"[1]; dry solid, 45 Deg. C., 4 weeks, dry container, + = potency gain, read-out: PERCENT LOSS (potency)",71%
same,degraded at 168 h,"[1]; dry solid, 56 Deg. C., 1 week, dry container, + = potency gain, read-out: PERCENT LOSS (potency)",57%
same,degraded at 24 h,[1]; [6],100%
same,loss of activity on storage,[2],≥ 30%
same,spectrum of activity,various organisms,broader spectrum activity than ceftazidime and cefotaxime; also recorded: broad spectrum utility against various organisms
CO/N=C(\C(=O)NC1C(=O)N2C(C(=O)[O-])=C(C[N+]3(C)CCCC3)CSC12)c1csc(N)n1 (centres unmarked) [(HCl)2 Salt],PERCENT LOSS (potency),[1]; [7],0%
same,PERCENT LOSS (potency),[1]; [8],7.4%
same,PERCENT LOSS (potency),[1]; [9],0%
same,degraded at 672 h,"[1]; dry solid, 56° C., 4 weeks, read-out: potency loss on storage",7.2%
same,degraded at 24 h,[1]; [6],12.4%
same,solubility in water,Solubility in water; listed as di-hydrochloric acid addition salt,greater than 200 mg/ml
"CO/N=C(\C(=O)NC1C(=O)N2C(C(=O)[O-])=C(C[N+]3(C)CCCC3)CSC12)c1csc(N)n1 (stereo not drawn) [monohydrate, crystalline dihydrochloride monohydrate of 7-[α-(2-aminothiazol-4-yl)-α-(Z)-methoxyiminoacetamido]-3-[(1-methyl-1-pyrrolidinio)methyl]-3-cephem-4-carboxylate]",storage stability at elevated temperatures (chemical and biological potency),[1],similar
same,degraded at 504 h,"[1]; dry solid, 56° C., 3 weeks",0.6%
same,remaining at 504 h,"[1]; dry solid, 56° C., 3 weeks, total water content ca. 2.5-4.1%, read-out: retention of potency",≥ 96%
same,loss in weight on drying,[3],no loss in weight
CO/N=C(\C(=O)NC1C(=O)N2C(C(=O)[O-])=C(C[N+]3(C)CCCC3)CSC12)c1csc(N)n1 (centres unmarked) [(HNO3)2 Salt],PERCENT LOSS (potency),[1]; [7],8.8%
same,PERCENT LOSS (potency),[1]; [10],3.4%
same,PERCENT LOSS (potency),[1]; [8],0.68%
same,PERCENT LOSS (potency),[1]; [11],10.3%
same,PERCENT LOSS (potency),[1]; [9],3.7%
same,PERCENT LOSS (potency),[1]; [12],2.4%
same,solubility in water (in words),Solubility in water; [13],reduced solubilities which are insufficient for typical injectable compositions; also recorded: not sufficiently soluble to form compositions of normal concentration for administration
same,solubility in water,Solubility in water; [13],about 60 mg/ml
"CO/N=C(\C(=O)NC1C(=O)N2C(C(=O)[O-])=C(C[N+]3(C)CCCC3)CSC12)c1csc(N)n1 (stereo not drawn) [Sesquiphosphate Salt, crystalline sesquiphosphate salt of 7-[α-(2-aminothiazol-4-yl)-α-(Z)-methoxyiminoacetamido]-3-[(1-methyl-1-pyrrolidinio)methyl]-3-cephem-4-carboxylate]","Stability, % Loss","[1]; 1 month, 37° C., 43200 min",2.5%
same,"Stability, % Loss","[1]; 1 week, 45° C., 10080 min",0%
same,"Stability, % Loss","[1]; 4 weeks, 56° C., 40320 min",0%
same,"Stability, % Loss","[1]; 3 days, 70° C.",0%
same,degraded at 168 h,"[1]; dry solid, 1 week, 56° C., read-out: Stability, % Loss",1%
same,degraded at 336 h,"[1]; dry solid, 2 weeks, 45° C., read-out: Stability, % Loss",1.4%
same,degraded at 336 h,"[1]; dry solid, 2 weeks, 56° C., read-out: Stability, % Loss",1.4%
same,degraded at 672 h,"[1]; dry solid, 4 weeks, 45° C., read-out: Stability, % Loss",0.7%
same,degraded at 1344 h,"[1]; dry solid, 8 weeks, 45° C.",1.6%
same,degraded at 24 h,"[1]; dry solid, 100° C., read-out: Stability, % Loss",10.9%
same,degraded at 168 h,"[1]; dry solid, 7 days, 70° C., read-out: Stability, % Loss",1.9%
same,solubility in water,Solubility in water; listed as sesqui-orthophosphoric acid addition salt,greater than 200 mg/ml
CO/N=C(\C(=O)NC1C(=O)N2C(C(=O)[O-])=C(C[N+]3(C)CCCC3)CSC12)c1csc(N)n1 (centres unmarked) [HCl Salt],PERCENT LOSS (potency),[1]; [7],4.8%
same,PERCENT LOSS (potency),[1]; [10],2.3%
same,PERCENT LOSS (potency),[1]; [8],6.0%
same,PERCENT LOSS (potency),[1]; [11],6.4%
same,PERCENT LOSS (potency),[1]; [9],6.4%
same,solubility in water,Solubility in water; listed as mono-hydrochloric acid addition salt,greater than 200 mg/ml
"CO/N=C(\C(=O)NC1C(=O)N2C(C(=O)[O-])=C(C[N+]3(C)CCCC3)CS[C@H]12)c1csc(N)n1 (stereo partly drawn) [H2 SO4 Salt, 7-[α-(2-aminothiazol-4-yl)-α-(Z)-methoxyiminoacetamido]-3-[(1-methyl-1-pyrrolidinio)methyl]-3-cephem-4-carboxylate sulfate salt]",PERCENT LOSS (potency),"[1]; 45 Deg. C., 1 week, dry container, + = potency gain, 10080 min, sulfate salt, 10080 min",2.4 to +5%
same,PERCENT LOSS (potency),"[1]; 45 Deg. C., 2 weeks, dry container, + = potency gain, 20160 min, sulfate salt, 20160 min",3%
same,PERCENT LOSS (potency),"[1]; 45 Deg. C., 4 weeks, dry container, + = potency gain, 40320 min, sulfate salt, 40320 min",+5%
same,PERCENT LOSS (potency),"[1]; 45 Deg. C., 6 weeks, dry container, + = potency gain, 60480 min, sulfate salt, 60480 min",1.4%
same,PERCENT LOSS (potency),"[1]; 56 Deg. C., 1 week, dry container, + = potency gain, 10080 min, sulfate salt, 10080 min",5 to +6%
same,PERCENT LOSS (potency),"[1]; 56 Deg. C., 2 weeks, dry container, + = potency gain, 20160 min, sulfate salt, 20160 min",+3%
same,PERCENT LOSS (potency),"[1]; 56 Deg. C., 4 weeks, dry container, + = potency gain, 40320 min, sulfate salt, 40320 min",0 to +6%
same,degraded at 730 h,"[1]; dry solid, 45-56 deg. C., one month",< 10%
same,solubility compared to the zwitterion form,Solubility in water,limited solubility
same,solubility in water (in words),Solubility in water; [14],reduced solubilities which are insufficient for typical injectable compositions; also recorded: not sufficiently soluble to form compositions of normal concentration for administration
same,solubility in water,"Solubility in water; listed as crystalline sulfuric acid addition salt, sulfate salt",25 mg/mL
same,solubility in water,Solubility in water; [14],about 25 mg/ml
"CO/N=C(\C(=O)NC1C(=O)N2C(C(=O)[O-])=C(C[N+]3(C)CCCC3)CSC12)c1csc(N)n1 (stereo not drawn) [dihydrate, dihydrate of 7-[α-(2-aminothiazol-4-yl)-α-(Z)-methoxyiminoacetamido]-3-[(1-methyl-1-pyrrolidinio)methyl]-3-cephem-4-carboxylate dihydrochloride]",formation of insoluble particles,[4],formation of trace amounts of insoluble particles was observed
"CO/N=C(\C(=O)NC1C(=O)N2C(C(=O)[O-])=C(C[N+]3(C)CCCC3)CSC12)c1csc(N)n1 (stereo not drawn) [(H3 PO4)2 Salt, crystalline diphosphate salt of 7-[α-(2-aminothiazol-4-yl)-α-(Z)-methoxyiminoacetamido]-3-[(1-methyl-1-pyrrolidinio)methyl]-3-cephem-4-carboxylate]",PERCENT LOSS (potency),[1]; [7],0%
same,PERCENT LOSS (potency),[1]; [8],1.0%
same,PERCENT LOSS (potency),[1]; [9],2.7%
same,PERCENT LOSS (potency),[1]; [12],5.0%
same,degraded at 336 h,[1]; [5],3%
same,solubility in water,Solubility in water; listed as di-orthophosphoric acid addition salt,greater than 200 mg/ml
